Results from PubChem BioAssay (NCI).
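Each compound was tested at five concentrations against cells in 96-well plates for 48 hours. Here, GI50 denotes the concentration required for 50% inhibition of growth. At the TGI there is no net growth.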

Experiments:
Experiment in all cases: NCI anticancer screen, dose series, 48 h
MOLT-4 leukemia = tested on: MOLT-4 leukemia
PC-3 prostate = tested on: PC-3 prostate
HOP-62 NSCLC = tested on: HOP-62 NSCLC
OVCAR-5 ovarian = tested on: OVCAR-5 ovarian
OVCAR-4 ovarian = tested on: OVCAR-4 ovarian
SF-268 CNS = tested on: SF-268 CNS
ACHN renal = tested on: ACHN renal
HL-60(TB) leukemia = tested on: HL-60(TB) leukemia
HCC-2998 colon = tested on: HCC-2998 colon
HOP-92 NSCLC = tested on: HOP-92 NSCLC
DU-145 prostate = tested on: DU-145 prostate
SN12C renal = tested on: SN12C renal
U251 CNS = tested on: U251 CNS
RPMI-8226 leukemia = tested on: RPMI-8226 leukemia
NCI-H23 lung = tested on: NCI-H23 lung
HT29 colon = tested on: HT29 colon
HCT-116 colon = tested on: HCT-116 colon
T-47D breast = tested on: T-47D breast
SF-539 CNS = tested on: SF-539 CNS
M14 melanoma = tested on: M14 melanoma
SNB-19 CNS = tested on: SNB-19 CNS
OVCAR-3 ovarian = tested on: OVCAR-3 ovarian
OVCAR-8 ovarian = tested on: OVCAR-8 ovarian
UACC-257 melanoma = tested on: UACC-257 melanoma
NCI/ADR-RES ovarian = tested on: NCI/ADR-RES ovarian
SK-MEL-2 melanoma = tested on: SK-MEL-2 melanoma
SF-295 CNS = tested on: SF-295 CNS
HS 578T breast = tested on: HS 578T breast
MALME-3M melanoma = tested on: MALME-3M melanoma
EKVX NSCLC = tested on: EKVX NSCLC
KM12 colon = tested on: KM12 colon
SK-OV-3 ovarian = tested on: SK-OV-3 ovarian
MDA-MB-231 breast = tested on: MDA-MB-231 breast
HCT-15 colon = tested on: HCT-15 colon
786-0 renal = tested on: 786-0 renal
RXF 393 renal = tested on: RXF 393 renal
CCRF-CEM leukemia = tested on: CCRF-CEM leukemia
IGROV1 ovarian = tested on: IGROV1 ovarian
A549 NSCLC = tested on: A549 NSCLC
A498 renal = tested on: A498 renal
BT-549 breast = tested on: BT-549 breast
MCF7 breast = tested on: MCF7 breast
TK-10 renal = tested on: TK-10 renal
SK-MEL-28 melanoma = tested on: SK-MEL-28 melanoma
SW-620 colon = tested on: SW-620 colon
SR leukemia = tested on: SR leukemia
SNB-75 CNS = tested on: SNB-75 CNS
NCI-H226 lung = tested on: NCI-H226 lung
NCI-H460 lung = tested on: NCI-H460 lung
SK-MEL-5 melanoma = tested on: SK-MEL-5 melanoma
MDA-MB-435 = tested on: MDA-MB-435
UO-31 renal = tested on: UO-31 renal
UACC-62 melanoma = tested on: UACC-62 melanoma
COLO 205 colon = tested on: COLO 205 colon
NCI-H522 lung = tested on: NCI-H522 lung
LOX IMVI melanoma = tested on: LOX IMVI melanoma
CAKI-1 renal = tested on: CAKI-1 renal
K-562 leukemia = tested on: K-562 leukemia

## CCCCCCCCCCCCCCCCCCNCc1ccc(Cl)cc1
MOLT-4 leukemia
  GI50: 1.99 µM
  TGI: 4.55 µM
PC-3 prostate
  GI50: 1.94 µM
  TGI: 3.96 µM
HOP-62 NSCLC
  GI50: 3.17 µM
  TGI: 12.8 µM
OVCAR-5 ovarian
  GI50: 2.65 µM
  TGI: 12.1 µM
OVCAR-4 ovarian
  GI50: 1.99 µM
  TGI: 4.76 µM
SF-268 CNS
  GI50: 3.82 µM
  TGI: 18.2 µM
ACHN renal
  GI50: 2.15 µM
  TGI: 5.54 µM
HL-60(TB) leukemia
  GI50: 1.55 µM
  TGI: 3.94 µM
HCC-2998 colon
  GI50: 4.58 µM
  TGI: 18.9 µM
HOP-92 NSCLC
  GI50: 1.83 µM
  TGI: 5.45 µM
DU-145 prostate
  GI50: 2.06 µM
  TGI: 4.44 µM
SN12C renal
  GI50: 3.63 µM
  TGI: 13.8 µM
U251 CNS
  GI50: 1.96 µM
  TGI: 3.85 µM
RPMI-8226 leukemia
  GI50: 2.24 µM
  TGI: 5.71 µM
NCI-H23 lung
  GI50: 3.07 µM
  TGI: 12 µM
HT29 colon
  GI50: 1.73 µM
  TGI: 3.46 µM
HCT-116 colon
  GI50: 3.03 µM
  TGI: 11.7 µM
T-47D breast
  GI50: 4.28 µM
  TGI: 24.9 µM
SF-539 CNS
  GI50: 12.1 µM
  TGI: 29.4 µM
M14 melanoma
  GI50: 2.28 µM
  TGI: 7.04 µM
SNB-19 CNS
  GI50: 3.31 µM
  TGI: 12 µM
OVCAR-3 ovarian
  GI50: 3.07 µM
  TGI: 11 µM
OVCAR-8 ovarian
  GI50: 4.08 µM
  TGI: 16.6 µM
UACC-257 melanoma
  GI50: 18.6 µM
  TGI: 36 µM
NCI/ADR-RES ovarian
  GI50: 3.58 µM
  TGI: 18.2 µM
SK-MEL-2 melanoma
  GI50: 8.65 µM
  TGI: 25.9 µM
SF-295 CNS
  GI50: 12.6 µM
  TGI: 28.8 µM
HS 578T breast
  GI50: 7.97 µM
  TGI: 30.4 µM
MALME-3M melanoma
  GI50: 7.37 µM
  TGI: 22.6 µM
EKVX NSCLC
  GI50: 3.84 µM
  TGI: 18.7 µM
KM12 colon
  GI50: 2.5 µM
  TGI: 6.54 µM
SK-OV-3 ovarian
  GI50: 4.02 µM
  TGI: 16.9 µM
MDA-MB-231 breast
  GI50: 1.84 µM
  TGI: 4.3 µM
HCT-15 colon
  GI50: 1.93 µM
  TGI: 4.71 µM
786-0 renal
  GI50: 8.61 µM
  TGI: 25.1 µM
RXF 393 renal
  GI50: 3.39 µM
  TGI: 15.8 µM
CCRF-CEM leukemia
  GI50: 2.69 µM
  TGI: 8.66 µM
IGROV1 ovarian
  GI50: 1.91 µM
  TGI: 5.24 µM
A549 NSCLC
  GI50: 2.52 µM
  TGI: 5.65 µM
A498 renal
  GI50: 14 µM
  TGI: 31.9 µM
BT-549 breast
  GI50: 17.3 µM
  TGI: 42.2 µM
MCF7 breast
  GI50: 2.93 µM
  TGI: 11.5 µM
TK-10 renal
  GI50: 2.3 µM
  TGI: 9.03 µM
SK-MEL-28 melanoma
  GI50: 13.8 µM
  TGI: 28.8 µM
SW-620 colon
  GI50: 1.87 µM
  TGI: 4.03 µM
SR leukemia
  GI50: 2.08 µM
  TGI: 6.58 µM
SNB-75 CNS
  GI50: 9.15 µM
  TGI: 27.3 µM
NCI-H226 lung
  GI50: 3.7 µM
  TGI: 19.2 µM
NCI-H460 lung
  GI50: 2.05 µM
  TGI: 4 µM
SK-MEL-5 melanoma
  GI50: 15.7 µM
  TGI: 30.3 µM
MDA-MB-435
  GI50: 3.45 µM
  TGI: 15.6 µM
UO-31 renal
  GI50: 1.6 µM
  TGI: 3.45 µM
UACC-62 melanoma
  GI50: 4.02 µM
  TGI: 15.5 µM
COLO 205 colon
  GI50: 1.96 µM
  TGI: 4 µM
NCI-H522 lung
  GI50: 2.52 µM
  TGI: 8.73 µM
LOX IMVI melanoma
  GI50: 2.04 µM
  TGI: 4.92 µM

## O=C(CSCC(=O)N/N=C/c1ccccc1O)N/N=C\c1ccccc1O
PC-3 prostate
  GI50: 3.06 µM
  TGI: > 100 µM
HOP-62 NSCLC
  GI50: 1.31 µM
  TGI: > 100 µM
OVCAR-5 ovarian
  GI50: 5.11 µM
  TGI: > 100 µM
OVCAR-4 ovarian
  GI50: 1.72 µM
  TGI: > 100 µM
SF-268 CNS
  GI50: 1.2 µM
  TGI: > 100 µM
ACHN renal
  GI50: 0.877 µM
  TGI: 25 µM
HL-60(TB) leukemia
  GI50: 1.49 µM
  TGI: 5.11 µM
HCC-2998 colon
  GI50: 1.61 µM
  TGI: 34.4 µM
HOP-92 NSCLC
  GI50: 1.73 µM
  TGI: > 100 µM
DU-145 prostate
  GI50: 1.92 µM
  TGI: > 100 µM
SN12C renal
  GI50: 2.46 µM
  TGI: > 100 µM
U251 CNS
  GI50: 1.06 µM
  TGI: > 100 µM
RPMI-8226 leukemia
  GI50: 3.49 µM
  TGI: > 100 µM
NCI-H23 lung
  GI50: 3.33 µM
  TGI: > 100 µM
HT29 colon
  GI50: 5.64 µM
  TGI: > 100 µM
HCT-116 colon
  GI50: 1.06 µM
  TGI: > 100 µM
T-47D breast
  GI50: 2.36 µM
  TGI: > 100 µM
SF-539 CNS
  GI50: 2.1 µM
  TGI: 23 µM
M14 melanoma
  GI50: 1.51 µM
  TGI: 12.5 µM
SNB-19 CNS
  GI50: 2.95 µM
  TGI: > 100 µM
OVCAR-3 ovarian
  GI50: 4.76 µM
  TGI: > 100 µM
OVCAR-8 ovarian
  GI50: 1.92 µM
  TGI: > 100 µM
UACC-257 melanoma
  GI50: 3.09 µM
  TGI: 22.5 µM
NCI/ADR-RES ovarian
  GI50: 2.87 µM
  TGI: > 100 µM
SK-MEL-2 melanoma
  GI50: 5.35 µM
  TGI: > 100 µM
SF-295 CNS
  GI50: 1.78 µM
  TGI: > 100 µM
HS 578T breast
  GI50: 26.7 µM
  TGI: > 100 µM
MALME-3M melanoma
  GI50: 2.29 µM
  TGI: 25.2 µM
EKVX NSCLC
  GI50: 2.44 µM
  TGI: > 100 µM
KM12 colon
  GI50: 2.42 µM
  TGI: > 100 µM
SK-OV-3 ovarian
  GI50: 2.4 µM
  TGI: > 100 µM
MDA-MB-231 breast
  GI50: 4.16 µM
  TGI: > 100 µM
HCT-15 colon
  GI50: 0.52 µM
  TGI: > 100 µM
786-0 renal
  GI50: 1.95 µM
  TGI: 6.59 µM
CAKI-1 renal
  GI50: 0.627 µM
  TGI: 9.82 µM
RXF 393 renal
  GI50: 2.46 µM
  TGI: > 100 µM
CCRF-CEM leukemia
  GI50: 0.433 µM
  TGI: > 100 µM
IGROV1 ovarian
  GI50: 1.91 µM
  TGI: > 100 µM
A549 NSCLC
  GI50: 3.2 µM
  TGI: > 100 µM
A498 renal
  GI50: 14.3 µM
  TGI: > 100 µM
BT-549 breast
  GI50: 1.73 µM
  TGI: 56.3 µM
MCF7 breast
  GI50: 5.85 µM
  TGI: > 100 µM
TK-10 renal
  GI50: 1.83 µM
  TGI: > 100 µM
SK-MEL-28 melanoma
  GI50: 8.05 µM
  TGI: > 100 µM
SW-620 colon
  GI50: 3.25 µM
  TGI: > 100 µM
SR leukemia
  GI50: 0.668 µM
  TGI: > 100 µM
SNB-75 CNS
  GI50: 67.7 µM
  TGI: > 100 µM
K-562 leukemia
  GI50: 2.39 µM
  TGI: > 100 µM
NCI-H226 lung
  GI50: 3.43 µM
  TGI: > 100 µM
NCI-H460 lung
  GI50: 2.27 µM
  TGI: > 100 µM
SK-MEL-5 melanoma
  GI50: 1.86 µM
  TGI: > 100 µM
MDA-MB-435
  GI50: 3.44 µM
  TGI: > 100 µM
UO-31 renal
  GI50: 1.06 µM
  TGI: 37.3 µM
UACC-62 melanoma
  GI50: 1.61 µM
  TGI: 7.13 µM
COLO 205 colon
  GI50: 2.19 µM
  TGI: > 100 µM
NCI-H522 lung
  GI50: 3.61 µM
  TGI: > 100 µM
LOX IMVI melanoma
  GI50: 0.748 µM
  TGI: > 100 µM
